#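 Tested at 5 concentrations; 48 h exposure; 96-well plates; endpoints linearly interpolated, else capped at highest concentration. GI50 is the concentration that inhibits growth by half. TGI denotes the concentration required for complete inhibition of growth.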
# What was measured:
# Assay in all cases: NCI tumour cell line growth inhibition, 48 h
# [1] = test system: KM12 colon
# [2] = test system: SNB-19 CNS
# [3] = test system: OVCAR-8 ovarian
# [4] = test system: HL-60(TB) leukemia
# [5] = test system: NCI-H522 lung
# [6] = test system: LOX IMVI melanoma
# [7] = test system: SK-MEL-5 melanoma
# [8] = test system: ACHN renal
# [9] = test system: A549 NSCLC
# [10] = test system: CCRF-CEM leukemia
# [11] = test system: MCF7 breast
# [12] = test system: RPMI-8226 leukemia
# [13] = test system: NCI-H23 lung
# [14] = test system: SK-MEL-2 melanoma
# [15] = test system: DU-145 prostate
# [16] = test system: OVCAR-4 ovarian
# [17] = test system: NCI-H460 lung
# [18] = test system: NCI/ADR-RES ovarian
# [19] = test system: IGROV1 ovarian
# [20] = test system: HOP-92 NSCLC
# [21] = test system: COLO 205 colon
# [22] = test system: K-562 leukemia
# [23] = test system: MOLT-4 leukemia
# [24] = test system: MDA-MB-435
# [25] = test system: UO-31 renal
# [26] = test system: MALME-3M melanoma
# [27] = test system: SW-620 colon
# [28] = test system: HT29 colon
# [29] = test system: U251 CNS
# [30] = test system: T-47D breast
# [31] = test system: SK-OV-3 ovarian
# [32] = test system: M14 melanoma
# [33] = test system: TK-10 renal
# [34] = test system: SK-MEL-28 melanoma
# [35] = test system: BT-549 breast
# [36] = test system: UACC-257 melanoma
# [37] = test system: SR leukemia
# [38] = test system: EKVX NSCLC
# [39] = test system: CAKI-1 renal
# [40] = test system: HCT-15 colon
# [41] = test system: 786-0 renal
# [42] = test system: PC-3 prostate
# [43] = test system: UACC-62 melanoma
# [44] = test system: SNB-75 CNS
# [45] = test system: HCT-116 colon
# [46] = test system: OVCAR-3 ovarian
# [47] = test system: MDA-MB-231 breast
# [48] = test system: RXF 393 renal
# [49] = test system: SN12C renal
# [50] = test system: HOP-62 NSCLC
# [51] = test system: SF-268 CNS
# [52] = test system: SF-295 CNS
# [53] = test system: HS 578T breast
smiles,measurement,setting,value
N#C/C(=C/N1CCN(C(=O)c2ccco2)C1=S)C(N)=O,GI50,[1],7.51 µM
same,TGI,[1],98.2 µM
same,GI50,[2],36.4 µM
same,TGI,[2],> 100 µM
same,GI50,[3],43.7 µM
same,TGI,[3],> 100 µM
same,GI50,[4],22 µM
same,TGI,[4],57.3 µM
same,GI50,[5],18.7 µM
same,TGI,[5],44.2 µM
same,GI50,[6],2.5 µM
same,TGI,[6],7.69 µM
same,GI50,[7],16.5 µM
same,TGI,[7],38.9 µM
same,GI50,[8],11.8 µM
same,TGI,[8],38.8 µM
same,GI50,[9],34.5 µM
same,TGI,[9],> 100 µM
same,GI50,[10],> 100 µM
same,TGI,[10],> 100 µM
same,GI50,[11],1.71 µM
same,TGI,[11],21 µM
same,GI50,[12],12.4 µM
same,TGI,[12],> 100 µM
same,GI50,[13],21.4 µM
same,TGI,[13],44 µM
same,GI50,[14],24.4 µM
same,TGI,[14],62.3 µM
same,GI50,[15],29.8 µM
same,TGI,[15],> 100 µM
same,GI50,[16],18.5 µM
same,TGI,[16],73.8 µM
same,GI50,[17],3.99 µM
same,TGI,[17],50.7 µM
same,GI50,[18],25.4 µM
same,TGI,[18],59.6 µM
same,GI50,[19],24 µM
same,TGI,[19],86.8 µM
same,GI50,[20],25.5 µM
same,TGI,[20],> 100 µM
same,GI50,[21],24.9 µM
same,TGI,[21],> 100 µM
same,GI50,[22],9.13 µM
same,TGI,[22],> 100 µM
same,GI50,[23],39.8 µM
same,TGI,[23],> 100 µM
same,GI50,[24],14.6 µM
same,TGI,[24],44.1 µM
same,GI50,[25],23.5 µM
same,TGI,[25],51.8 µM
same,GI50,[26],12.5 µM
same,TGI,[26],56.8 µM
same,GI50,[27],22.1 µM
same,TGI,[27],81.7 µM
same,GI50,[28],24.1 µM
same,TGI,[28],> 100 µM
same,GI50,[29],11.5 µM
same,TGI,[29],46.8 µM
same,GI50,[30],9.32 µM
same,TGI,[30],> 100 µM
same,GI50,[31],42.6 µM
same,TGI,[31],> 100 µM
same,GI50,[32],16.5 µM
same,TGI,[32],43.2 µM
same,GI50,[33],12.1 µM
same,TGI,[33],53.6 µM
same,GI50,[34],15.8 µM
same,TGI,[34],> 100 µM
same,GI50,[35],22.5 µM
same,TGI,[35],55.9 µM
same,GI50,[36],23.3 µM
same,TGI,[36],50.8 µM
same,GI50,[37],3.03 µM
same,TGI,[37],> 100 µM
same,GI50,[38],0.342 µM
same,TGI,[38],0.982 µM
same,GI50,[39],11.8 µM
same,TGI,[39],34.4 µM
same,GI50,[40],3.82 µM
same,TGI,[40],> 100 µM
same,GI50,[41],18 µM
same,TGI,[41],46.9 µM
same,GI50,[42],35.6 µM
same,TGI,[42],> 100 µM
same,GI50,[43],14 µM
same,TGI,[43],38.3 µM
same,GI50,[44],> 100 µM
same,TGI,[44],> 100 µM
same,GI50,[45],21.2 µM
same,TGI,[45],92.9 µM
same,GI50,[46],19 µM
same,TGI,[46],59.8 µM
same,GI50,[47],13.1 µM
same,TGI,[47],37 µM
same,GI50,[48],19.2 µM
same,TGI,[48],82.2 µM
same,GI50,[49],12 µM
same,TGI,[49],32.2 µM
same,GI50,[50],25.6 µM
same,TGI,[50],66.9 µM
same,GI50,[51],11.7 µM
same,TGI,[51],36.4 µM
same,GI50,[52],32.1 µM
same,TGI,[52],> 100 µM
NC(N)=Nc1ccc(-n2nc(C(F)(F)F)cc2-c2ccc3c(ccc4ccccc43)c2)cc1,GI50,[4],1.09 µM
same,TGI,[4],2.82 µM
same,GI50,[10],2.05 µM
same,TGI,[10],5.53 µM
same,GI50,[12],2.16 µM
same,TGI,[12],5.06 µM
same,GI50,[18],3.14 µM
same,TGI,[18],15.6 µM
same,GI50,[23],2.35 µM
same,TGI,[23],4.92 µM
same,GI50,[53],1.59 µM
same,TGI,[53],4.34 µM

# — PubChem BioAssay (NCI)
